This is an account of results in patent US8354424B2, “Method of treating actinic keratosis” (Medicis Pharmaceutical Corporation, priority 2005, dated 2013).

In the data set the test system is actinic keratosis lesions. Kind of data set: Randomized, double-blind study, eight-week treatment period, topical cream on actinic keratosis lesions on the head. It counts as in vivo, human. The following applies: formulation with about 0.3 wt-% compound, twice per week, about 8 weeks, compared to other formulations or regimens. The protocol:
A randomized, double-blind study was performed to evaluate single and multi-weekly doses of the formulations prepared above topically applied to actinic keratosis lesions on the head.
Otherwise healthy white (n=280) subjects (15% female, 85% male) ranging in ages 38 to 89 years of age (median age of 66.5), inclusive, with actinic keratosis lesions on the head were enrolled in the study. […] The actinic keratosis lesions areas were on the scalp (36%) and face (64%).
The study included an eight-week treatment period followed by an eight-week post-treatment period. […]
Subjects completed interval visits at treatment initiation, 1, 2, 4, and 8 weeks after treatment was initiated and at four and eight-weeks after the end of treatment. Subjects were monitored for erythema and other treatment site conditions during the entire 16 weeks of the study. Erythema, as assessed by study investigators, was defined as intense, moderate, mild, or no redness of the skin at the treatment site and given an intensity score of severe, moderate, mild, or none, respectively.
At the eight-week post-treatment visit, the treatment area was clinically evaluated for actinic keratosis lesions. Efficacy was measured as complete clearance of actinic keratosis lesions and partial clearance of actinic keratosis lesions at the eight-week post-treatment visit. […]

In the case of `Cc1nc2c(N)nc3cccnc3c2n1CC(C)C` [2-methyl-1-(2-methylpropyl)-1H-imidazo[4,5-c][1,5]naphthyridin-4-amine], the side effects result is “a low level of side effects”.
